In assay [1] the target is PAF specific receptor binding site on rabbit platelet plasma membranes (Oryctolagus cuniculus, UniProt G1TEI7). As to the kind of experiment: Inhibition of 3H-PAF binding to rabbit platelet plasma membrane. The conditions noted are these: for inhibition at 0.03 µM: .03 μM; for inhibition at 0.1 µM: .1 μM; for inhibition at 0.3 µM: .3 μM. On the procedure: A. In Vitro Assay: In vitro, they inhibit PAF-induced functions in both the cellular and tissue levels by disturbing the PAF binding to its specific receptor site. The ability of a compound of formula (I) to inhibit the PAF binding to its specific receptor binding site on rabbit platelet plasma membranes was measured by an assay recently developed by us.
The inhibition of H^3 -PAF binding to the rabbit platelet plasma membrane by a PAF-antagonist of Formula (I) was determined by a method employing isotopic labeling and filtration techniques. Generally, a series of Tris-buffered solutions of the selected antagonist at predetermined concentrations were prepared. Each of these solutions contains 1 pmole of ^3 H-PAF, a known amount of the test antagonist, and a sufficient amount of the pH 7.5 Tris-buffer solution (10 mM Tris, 0.25% bovine serum albumin, and 150 mM NaCl per ml water) to make the final volume of 1 ml. After adding into a set of test tubes each with 100 μg of the platelet plasma membrane suspension (S. B. Hwang, et al., Biochemistry, 1983) and one of the Tris-buffer solutions described above, the resulting mixture in each test tube was incubated at 0° C. for about one hour or until the reaction was complete. Two control samples, one of which (C1)contains all the ingredients described above except the antagonist and the other (C2) contains C1 plus a 1000-fold excess of unlabeled PAF, were also prepared and incubated simultaneously with the test samples. After the incubation was completed, the contents of each test tube were filtered under vacuo through a Whatman GF/C fiberglass filter and the residue washed rapidly several times with a total of 20 ml cold (0°-5° C.) Tris-buffer solution. Each washed residue was then suspended in 10 ml scintillation solution (Aquasol 2, New England Nuclear, Connecticut) and the radioactivity was counted in a Packard Tri-Carb 460CD Liguid Scintillation System. Defining the counts from a test sample as "Total binding with antagonist"; the counts from the control sample C1, as "Total binding C1 "; and the counts from the control sample C2 as "nonspecific binding C2 ", the percent inhibition of each test antagonist can be determined by the following equation: [formula]

Assay [2] concerns PAF-induced symptoms (increased vascular permeability, increased degranulation). As to the kind of experiment: Oral activity in inhibiting PAF-induced symptoms in rats. In kind it is in vivo. To be noted: rat. The source says:
B. In vivo Assay: Protocol for Assay of Oral Activity of PAF-antagonists in inhibiting PAF-induced symptoms including decreased arterial blood flow, increased vascular permeability and increased degranulation in rats
Animals: Female, Wiston rats, 190-220 g
2. Weigh the rats the morning after fasting.
3. Suspend a test compound in 0.5% methylcellulose with 12 ounce hand homogenizer or a sonicator if necessary to yield a fine suspension. […]
4. One hour after dosing, anesthetize the rat with sodium Nembutal (i.p.).
5. One and a quarter hours after dosing, cannulate surgically the left femoral vein and artery of the rat.
6. One and a half hours after dosing, infuse through cannulated vein 0.5 nannomoles (n moles) per 200 g body weight of the rat. Take blood samples from the cannulated femoral artery at 1.5, 3, 5, 8, 11, 15, 20 25 and 30 minute intervals. After the beginning of the PAF infusion as well as just before the PAF infusion, measure the following three parameters for each blood sample:
(§1) (a) the arterial blood flow rate: determined by measuring the time to fill a pre-calibrated 14 μl capillary tube;
(b) the vascular permeability: measured by calculating the increased hematocrit which results from loss of plasma from the circulation to extra-vascular spaces.
(c) the circulatory degranulation: determined by assaying the increased plasma level of N-acetylglucosaminidase, a marker lysosomal enzyme.
7. Determine the percent change in each parameter of a blood sample at each post-PAF interval including the 30 minute interval, relative to the pre-PAF blood values.
(§2) 8. Calculate the percent inhibition by the formula: [formula]

Assay [3] relates to soluble immune complex induced effects. As to the kind of experiment: Method B: oral activity in inhibiting soluble immune complex induced effects in rats. In kind it is in vivo. To be noted: rat, 50 mg/kg. The procedure: Method B: Protocol for Assay of Oral Activity of PAF antagonists in inhibiting soluble immune complex induced effects including decreased arterial blood flow, increased vascular permeability and increased degranulation in rats.
Animals: Female, wistar rats, 190-22-g
2. Weigh the rats the morning after fasting
3. Suspend a test compound in 0.5% methylcellulose with 12 ounce hand homogenizer to yield fine suspension. Administer orally each of the rats with 2 ml of suspension such that the rat received a predetermined amount of the compound varying between 2 and 50 mg compound per kg bodyweight of the rat.
4. Soluble immune complexes (I.C.) were prepared by mixing 2.4 mg human serum albumin (HSA) with 51 mg of the Igby fraction from rabbit anti-HSA antiserum in a final volume of 3.4 ml and incubating at 37° C. for 1 hour. This ratio of HSA to antibody was previously determined to be in slight antigen excess of equivalence and to result in soluble I.C. Following 37° C. incubation, the I.C. was centrifuged at 10,000 xg, 5 minute and the resulting superinstant containing the soluble I.C. stored on ice.
5. Two and one-half hours after dosing, anesthetize the rat with sodium Nembutal (i.P.)
6. Two and three-quarters hours after dosing, cannulate surgically the left femoral vein and artery of the rat. Take a blood sample from the cannulated femoral artery before the I.C. infusion and 1.5, 3, 5, 8, 11, 15, 20, 25 and 30 minutes after the I.C. infusion. Measure the following three parameter for each blood sample:
as §1
(b) the vascular permeability: measured by calculating the increased hematocit which results from loss of plasma from the circulation to extra-vascular spaces.
(c) the circulatory degranulation: determined by assaying the increased plasma level of N-acetylglucosaminidase, a marker lysopomal enzyme.
as §2

The values below come from patent US4757084A, “2,5-diaryl tetrahydrothiophenes and analogs thereof as PAF-antagonists” (Merck & Co., Inc., priority 1985, dated 1988).

Structures are written as SMILES.

Chain of PAF specific receptor binding site on rabbit platelet plasma membranes (G1TEI7 1-342): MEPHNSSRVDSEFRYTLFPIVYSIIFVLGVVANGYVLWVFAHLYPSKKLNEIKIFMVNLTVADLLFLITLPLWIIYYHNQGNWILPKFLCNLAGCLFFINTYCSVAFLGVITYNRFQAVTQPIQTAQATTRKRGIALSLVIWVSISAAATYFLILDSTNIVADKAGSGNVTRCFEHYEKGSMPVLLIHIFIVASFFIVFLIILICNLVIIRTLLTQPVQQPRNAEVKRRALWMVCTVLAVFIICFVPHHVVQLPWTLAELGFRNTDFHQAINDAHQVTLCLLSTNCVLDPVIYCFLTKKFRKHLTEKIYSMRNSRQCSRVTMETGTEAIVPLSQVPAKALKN

A word on the inhibition: it is the share of the control response that was lost under treatment. For the compound `COc1cc([C@H]2CC[C@H](c3cc(OC)c(OC)c(OC)c3)S2)cnc1OC` (relative stereo) [trans-2-(3,4,5-trimethoxyphenyl)-5-(5,6-dimethoxy-3-pyridyl)tetrahydrothiophene], in assay [1], the “PAF-antagonist activity (in words)” value is given as “most active PAF-antagonists”, the inhibition at 1 µM was determined as 80% and testing at 5 µM gave an inhibition of 96%.

Consider `COc1cc([C@H]2CC[C@H](c3cc(OC)c(OC)c(OC)c3)S2)cc(OC)c1OC` (relative stereo) [trans-2,5-bis (3,4,5-trimethoxyphenyl) tetrahydrothiophene], for which, in assay [1], the “PAF-antagonist activity (in words)” value is given as “most active PAF-antagonists”, testing at 1 µM gave an inhibition of 100%, the inhibition at 0.03 µM amounted to 69% and 0.1 µM produced 95% inhibition. Testing at 0.3 µM in assay [1] gave an inhibition of 100%. Further, in assay [2] (1 mg/kg), the “% inhibition A (increased vascular permeability)” value is given as 20% and the “% inhibition B (increased degranulation)” value came out at 49%. Besides, in assay [2] (5 mg/kg), the “% inhibition A (increased vascular permeability)” value was found to be 58% and the “% inhibition B (increased degranulation)” value was 60%. For the same compound, in assay [2] (20 mg/kg), the “% inhibition A (increased vascular permeability)” value came out at 85% and the “% inhibition B (increased degranulation)” value stood at 83%. In assay [2] (40 mg/kg), the “% inhibition A (increased vascular permeability)” value is reported as 81% and the “% inhibition B (increased degranulation)” value is recorded as 81%. For the same compound, in assay [3], the “% inhibition of decreased arterial blood flow” value came to 40%, the “% inhibition of increased degranulation” value is reported as 40% and the “% inhibition of increased vascular permeability” value was found to be 73%.

As to `COc1ccc([C@H]2S[C@@H](c3ccc(OC)c(OC)c3)[C@H](C)[C@H]2C)cc1OC` (relative stereo), in assay [1], the inhibition at 1 µM was determined as 53% and the inhibition at 5 µM is 82%.

Turning to `COc1ccc([C@H]2CC[C@H](c3ccc(OC)c(OC)c3)S2)cc1OC` (relative stereo) [H H 3,4-dimethoxyphenyl same as Ar trans, trans-2,5-bis-(3,4-dimethoxyphenyl)tetrahydrothiophene], in assay [1], at 1 µM the inhibition was 100%, at 0.03 µM the inhibition was 31%, 0.1 µM produced 43% inhibition and the inhibition at 0.3 µM is 83%.

In the case of `COc1ccc([C@@H]2CC[C@H](c3ccc(OC)c(OC)c3)S2)cc1OC` [H H 3,4-dimethoxyphenyl same as Ar cis, cis-2,5-bis-(3,4-dimethoxyphenyl)tetrahydrothiophene], in assay [1], the inhibition at 1 µM worked out at 62%, the inhibition at 0.1 µM stood at 25% and at 0.3 µM the inhibition was 41%. For the same compound, in assay [2] (20 mg/kg), the “% inhibition A (increased vascular permeability)” value worked out at 41% and the “% inhibition B (increased degranulation)” value was 35%.

Take `COc1ccc([C@H]2S[C@H](c3ccc(OC)c(OC)c3)[C@H](C)[C@H]2C)cc1OC` (relative stereo): in assay [1], testing at 1 µM gave an inhibition of 82%, the inhibition at 0.03 µM amounted to 30%, testing at 0.1 µM gave an inhibition of 68% and the inhibition at 0.3 µM was 43%.
